Laboratory results taken from patent US12286425B2, “Herbicidally active bicyclic benzamides” (Bayer Aktiengesellschaft, priority 2018, dated 2025).

How the values were obtained:
Format in all cases: in vivo
AVEFA = experiment: Pre-emergence herbicidal action (PE), greenhouse pot test, AVEFA; settings: pre-emergence (PE); application rate 320; scored visually after about 3 weeks vs untreated controls; 100% = plants have died, 0% = like control plants
Source text: (§1) 1. Pre-emergence herbicidal action and crop plant compatibility (pre-emergence, PE) Seeds of monocotyledonous and dicotyledonous weed plants and crop plants are placed in plastic or organic planting pots and covered with soil. The compounds of the invention, formulated in the form of wettable powders (WP) or as emulsion concentrates (EC), are then applied onto the surface of the covering soil as aqueous suspension or emulsion with addition of 0.5% additive at a water application rate of […] (converted). After the treatment, the pots are placed in a greenhouse and kept under good growth conditions for the trial plants. After about 3 weeks, the effect of the preparations is scored visually in comparison with untreated controls as percentages. The tables below show the herbicidal activity of numerous compounds according to the invention against important harmful plants. For example, 100% activity=the plants have died, 0% activity=like control plants.

SETVI = experiment: Pre-emergence herbicidal action (PE), greenhouse pot test, SETVI; settings: pre-emergence (PE), Setaria viridis, application rate 320, scored visually after about 3 weeks
Source text: as §1

[1] = tested on: monocotyledonous and dicotyledonous weed plants and crop plants; experiment: Pre-emergence herbicidal action and crop plant compatibility (PE), other species and comparison with A-117; settings: pre-emergence (PE), application rate 320, scored visually after about 3 weeks; for Herbicidal activity ABUTH: Abutilon theophrasti; for Herbicidal activity AMARE: Amaranthus retroflexus; for Herbicidal activity CYPES: Cyperus esculentus; for Herbicidal activity ECHCG: Echinochloa crus-galli; for Herbicidal activity MATIN: Matricaria inodora; for Herbicidal activity POLCO: Polygonum convolvulus; for Herbicidal activity STEME: Stellaria media; for Herbicidal activity VIOTR: Viola tricolor
Source text: as §1
(§2) In a comparative experiment, by way of example, the herbicidal activity of compound No. 2-13 according to the invention was compared to that of compound No. A-117 known from WO 2013/076315 A2.

[2] = tested on: monocotyledonous and dicotyledonous weeds and crop plants; experiment: Post-emergence herbicidal action and crop plant compatibility (PO), including comparison with A-117; settings: post-emergence (PO), application rate 80, rated visually after about 3 weeks; for Herbicidal activity ABUTH: Abutilon theophrasti; for Herbicidal activity AMARE: Amaranthus retroflexus; for Herbicidal activity CYPES: Cyperus esculentus; for Herbicidal activity ECHCG: Echinochloa crus-galli; for Herbicidal activity PHBPU: Ipomoea purpurea; for Herbicidal activity SETVI: Setaria viridis; for Herbicidal activity STEME: Stellaria media; for Herbicidal activity VIOTR: Viola tricolor
Description: 2. Post-emergence herbicidal action and crop plant compatibility (post-emergence, PO) Seeds of monocotyledonous and dicotyledonous weeds and crop plants are placed in sandy loam in plastic or organic planting pots, covered with soil and cultivated in a greenhouse under controlled growth conditions. 2 to 3 weeks after sowing, the test plants are treated at the one-leaf stage. The compounds of the invention, formulated in the form of wettable powders (WP) or as emulsion concentrates (EC), are then sprayed onto the green parts of the plants as aqueous suspension or emulsion with addition of 0.5% additive at a water application rate of […] (converted). After the test plants had been kept in the greenhouse under optimum growth conditions for about 3 weeks, the activity of the preparations is rated visually in comparison to untreated controls. The tables below show the herbicidal activity of numerous compounds according to the invention against important harmful plants. For example, 100% activity=the plants have died, 0% activity=like control plants.
as §2

| SMILES | herbicidal activity AVEFA (AVEFA) [%] | Herbicidal activity SETVI (SETVI) [%] | Herbicidal activity ABUTH [1] [%] | Herbicidal activity AMARE [1] [%] | Herbicidal activity CYPES [1] [%] | Herbicidal activity ECHCG [1] [%] | Herbicidal activity MATIN [1] [%] | Herbicidal activity POLCO [1] [%] | Herbicidal activity STEME [1] [%] | Herbicidal activity VIOTR [1] [%] | Herbicidal activity ABUTH [2] [%] | Herbicidal activity AMARE [2] [%] | Herbicidal activity CYPES [2] [%] | Herbicidal activity ECHCG [2] [%] | Herbicidal activity PHBPU [2] [%] | Herbicidal activity SETVI [2] [%] | Herbicidal activity STEME [2] [%] | Herbicidal activity VIOTR [2] [%] | other results |
| --- | --- | --- | --- | --- | --- | --- | --- | --- | --- | --- | --- | --- | --- | --- | --- | --- | --- | --- | --- |
| CCn1nnnc1NC(=O)c1ccc(C(F)(F)F)c2c1OCC[S+]2[O-] (stereo not drawn) [Example 3-16] | 100 | 100 | 100 | 100 | 100 | 100 | 100 | 100 | 100 | 100 | 100 | 100 | 90 | 90 | 100 | 90 | 100 | 100 | herbicidal activity AVEFA ([2]; Avena fatua): 100%; Herbicidal activity POLCO ([2]; Polygonum convolvulus): 90%; Herbicidal activity VERPE ([2]; Veronica persica): 100% |
| CCn1nnnc1NC(=O)c1ccc(C(F)(F)F)c2c1OCCS2(=O)=O [Example 3-19] | 90 | 100 | 100 | 100 | 100 | 100 | 100 | 90 | 90 | 100 | 90 | 90 | 80 | 100 | 90 | 90 | 100 | 100 |  |
